From the supplement of paper PMC11061612

Legend:
[1] = system: 647-V (Bladder Carcinoma); experiment: Bliss excess, mean over the matrix (fraction); higher = more synergy
Summary of the method: (§1)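 Cell lines in DMEM/F12 or RPMI with 10% FBS were plated in 1536-well plates, held 24 hours at 37°C, 5% CO2, then given two-drug dose matrices for 72 hours (DMSO typically 0.2%). Viability was read by CellTiter-Glo 2.0 luminescence and scaled as inhibition from 0 (vehicle wells) to 1 (blank wells). Combination Emax is the second-highest inhibition in the matrix; Bliss excess is observed combination effect minus expected EA + EB − EA·EB, EA and EB being single-agent effects.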

[2] = system: CAL-39 (Other Solid Carcinomas); experiment: as above
Summary of the method: as §1

CS1 (Chondrosarcoma) = experiment: as above
Summary of the method: as §1

[3] = system: ETK-1 (Biliary Tract Carcinoma); experiment: as above
Summary of the method: as §1

[4] = system: FU-OV-1 (Ovarian Carcinoma); experiment: as above
Summary of the method: as §1

[5] = system: GDM-1 (Acute Myeloid Leukemia); experiment: as above
Summary of the method: as §1

[6] = system: HCC1143 (Breast Carcinoma); experiment: as above
Summary of the method: as §1

[7] = system: KG-1 (Acute Myeloid Leukemia); experiment: as above
Summary of the method: as §1

[8] = system: MEG-01 (Chronic Myelogenous Leukemia); experiment: as above
Summary of the method: as §1

MSTO-211H (Mesothelioma) = experiment: as above
Summary of the method: as §1

[9] = system: NCI-H1688 (Small Cell Lung Carcinoma); experiment: as above
Summary of the method: as §1

[10] = system: SK-LMS-1 (Other Solid Carcinomas); experiment: as above
Summary of the method: as §1

[11] = system: SNU-61 (Colorectal Carcinoma); experiment: as above
Summary of the method: as §1

[12] = system: TC-YIK (Other Solid Carcinomas); experiment: as above
Summary of the method: as §1

[13] = system: FU-OV-1 (Ovarian Carcinoma); experiment: combination Emax (second highest fraction inhibited in the dose matrix, 72 h); higher = more inhibition; extreme values may be limits of the assay
Summary of the method: as §1

[14] = system: TC-YIK (Other Solid Carcinomas); experiment: as above
Summary of the method: as §1
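For Bliss excess, mean over the matrix in this document: after 72 h of two-drug dosing.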

Row | Compound | Bliss excess [1] | Bliss excess [2] | Bliss excess (CS1 (Chondrosarcoma)) | Bliss excess [3] | Bliss excess [4] | Bliss excess [5] | Bliss excess [6] | Bliss excess [7] | Bliss excess [8] | Bliss excess (MSTO-211H (Mesothelioma)) | Bliss excess [9] | Bliss excess [10] | Bliss excess [11] | Bliss excess [12] | combination Emax [13] | combination Emax [14]
1 | C[C@@H](c1ccc2nccn2c1)n1nnc2ncc(-c3cnn(C)c3)nc21 [Savolitinib] + Cc1c2c(nn1C)CSCc1cc(n(C)n1)CSc1cc(c3ccccc3c1)OCCCc1c(C(=O)O)n(C)c3c-2c(Cl)ccc13 [AZD5991] (first compound max 1 µM, 7x7, partner max 1 µM) | -0.0594 | -0.0722 | -0.031 | -0.0544 | -0.056 | -0.0004 | 0.0108 | -0.0383 | -0.0308 | -0.0337 | 0.0064 | 0.0027 | -0.0429 | 0.003 | 0.204 | 0.193
2 | Cn1cnc2c(F)c(Nc3ccc(Br)cc3Cl)c(C(=O)NOCCO)cc21 [Selumetinib] + C=CCn1c(=O)c2cnc(Nc3ccc(N4CCN(C)CC4)cc3)nc2n1-c1cccc(C(C)(C)O)n1 [AZD1775] (first compound max 10 µM, partner max 1 µM) | -0.0359 | 0.0116 | -0.0195 | -0.0128 | -0.015 | -0.0254 | -0.0112 | 0.0445 | 0.0437 | -0.0323 | -0.115 | 0.0059 | -0.0358 | -0.03 | 0.47 | 0.826
3 | Cn1cnc2c(F)c(Nc3ccc(Br)cc3Cl)c(C(=O)NOCCO)cc21 [Selumetinib] + CC(C)n1c(=O)n(C)c2cnc3cc(F)c(-c4ccc(OCCCN5CCCCC5)nc4)cc3c21 [AZD1390] (first compound max 10 µM, 7x7, partner max 0.3 µM) | -0.0481 | 0.0025 | -0.0172 | -0.0432 | -0.0109 | -0.0523 | 0.013 | 0.0053 | 0.0034 | -0.0367 | -0.016 | -0.0429 | 0.0043 | 0.0473 | 0.431 | 0.466
4 | Cn1cnc2c(F)c(Nc3ccc(Br)cc3Cl)c(C(=O)NOCCO)cc21 [Selumetinib] + CCN(CCO)CCCOc1ccc2c(Nc3cc(CC(=O)Nc4cccc(F)c4)[nH]n3)ncnc2c1 [AZD2811] (first compound max 10 µM, 7x7, partner max 1 µM) | -0.0038 | -0.0688 | -0.0043 | -0.0222 | 0.0176 | -0.0345 | 0.0298 | 0.0789 | -0.0001 | -0.0137 | -0.0377 | -0.0047 | -0.0026 | -0.0495 | 0.405 | 0.874
5 | Cn1cnc2c(F)c(Nc3ccc(Br)cc3Cl)c(C(=O)NOCCO)cc21 [Selumetinib] + C[C@@H]1COCCN1C2=NC(=NC(=C2)C3(CC3)[S@](=N)(=O)C)C4=C5C=CNC5=NC=C4 [AZD6738] (first compound max 10 µM, 7x7, partner max 10 µM) | 0.0218 | -0.0152 | -0.0706 | -0.036 | 0.0621 | 0.0409 | -0.0207 | 0.0218 | 0.0135 | -0.0453 | -0.0217 | 0.0453 | 0.065 | -0.0582 | 0.487 | 0.865
